Test results published in ChEMBL document CHEMBL3046884, “Optical Resolution and Biological Activities of S-23121, a New Cereal Herbicide” (Agric Biol Chem, 1991).

System: Cucumis sativus
Experiment: Induction of membrane damage in Cucumis sativus (cucumber) cotyledon disks assessed as compound level causing […] ethane production incubated under white light for 24 hr at 20 degC
Assay type: functional

Structure (SMILES) | Activity
C#C[C@@H](C)Oc1cc(N2C(=O)C3=C(CCCC3)C2=O)c(F)cc1Cl | 178 nM
C#C[C@H](C)Oc1cc(N2C(=O)C3=C(CCCC3)C2=O)c(F)cc1Cl [(S)-S-23121] | 21 nM
